Results on six compounds are retold here after patent US9493479B2 (Merck Sharp & Dohme Corp., priority 2013, dated 2016).

Structures can show the parent of a compound that is named as a salt.

One assay has as its system HIV-1 (NL4-3 strain). The experiment in a line: ViKinG (Viral Kinetics GFP Reporter) assay for inhibition of HIV replication. The following applies: Human immunodeficiency virus 1, NL43; MT4-GFP cells infected with HIV-1 NL4-3; RPMI + 10% or 50% NHS (not given); infected cells at 48 h / 24 h. Type of assay: cell-based. An excerpt:
The ViKinG (Viral Kinetics GFP Reporter) assay is an in vitro kinetic assay that employs the MT4-gag-GFP reporter cell line (Wang et al., “Assessment of the susceptibility of mutant HIV-1 to antiviral agents.” J Virological Methods 165:230-37 (2010)) to quantify the number of new cells infected in each round of replication. The purpose of the ViKinG assay is to identify agents that inhibit HIV progression. Briefly, HIV infection results in tat transactivation of the stably expressed HIV LTR promoter to drive gagGFP expression. Thus, an increase in the number of GFP-MT4 cells results following HIV infection.
MT4-GFP cells (250,000 cells/m1) were bulk-infected with HIV-1 (NL4-3 strain) at low multiplicity of infection (MOT) in RPMI+10% FBS for 24 hours. Cells were then washed once in RPMI+10% FBS and resuspended RPMI+10% or 50% normal human serum (NHS). Test compounds were serial-diluted in DMSO on an ECHO® liquid handling platform (Labcyte Corp., Sunnyvale, Calif.), along with a triple drug control (integrase, protease and NNRTI compounds). The infected MT4-GFP cells were added to a 384-well poly-D-lysine coated black plate with clear bottom in which the diluted test compounds were placed. The cells were seeded at 8,000 cells per well and the final DMSO concentration was 0.4%. The infected cells (Green GFP cells) were quantified at both 24 and 48 hours post incubation using Acumen® eX3 (TTP Labtech Ltd., Hertfordshire, United Kingdom). Viral reproductive ratio (R0) was determined using the number of infected cells at 48 hours divided by the number of infected cells at 24 hours. Percent viral growth inhibition was calculated by [1−(R−Rtripledrug)/(RDMSO−Rtripledrug)]*100. Compound potency IP or IC50 was determined by a 4-parameter dose response curve analysis.

The next assay deals with T1, WT-Integrase (Human immunodeficiency virus type 1 group M subtype B, UniProt P04585).
T1 construct: assembled PVT SPA beads with WT-Integrase and boitinylated DNA
The experiment in a line: InSTANT integrase DNA strand transfer functional assay. It is filed as biochemical, HIV. The following applies: SPA strand transfer, 15 minutes at 37° C. As for the experimental part:
InSTANT is an integrase DNA strand transfer functional assay used to determine potency of InSTIs, which was carried out as described below. 8 μl of SPA buffer (27.8 mM Hepes, 27.8 mM MgCl2, 111.1 μg/mL BSA, 5.56 mM βME, and 57.1 mM NaCl) containing 5 nM 3H-labeled target DNA (prepared separately) and 10 μl of assembled PVT SPA beads with WT-Integrase and boitinylated DNA (prepared separately) were added to the assay plate which contained 0.4 μl of test compound(s) or positive or negative control compound(s) per well. The assay plate was shaken for 1 minute on HT-91002 1.0 MM shaker and then was sealed and incubated for 15 minutes at 37° C. The assay reaction was quenched by adding 4 μl of 1.25 M EDTA to each well of the assay plate with mixing. After incubating the plate at room temperature for 1 hour, the quenched plate was spun at 200 g for 1 minute and read on TopCount (1 minute per well). Percent inhibition was calculated by [1−(Sample−Min)/(Max−Min)]*100. Compound potency IP or IC50 was determined by a 4-parameter dose response curve analysis.

As usually defined, the IC50 is the concentration needed to halve the response being measured.

Take `CC(C)c1c(C(=O)N(C)C)n2c(c(O)c1=O)C(=O)N(Cc1ccc(F)cc1)CC2` [Compound 20, 2-(4-fluorobenzyl)-9-hydroxy-7-isopropyl-N,N-dimethyl-1,8-dioxo-2,3,4,8-tetrahydro-1H-pyrido[1,2-a]pyrazine-6-carboxamide]: the IC50 in the assay on HIV-1 (NL4-3 strain) came out at 286 nM; against WT-Integrase, 20 nM.
On the same counts, the results for `C=C1CN(C)C(=O)c2c1c(=O)c(O)c1n2CCN(Cc2ccc(F)c(Cl)c2)C1=O` [Compound 21, 8-(3-chloro-4-fluorobenzyl)-6-hydroxy-2-methyl-4-methylene-3,4,9,10-tetrahydro-1H-pyrazino[1,2-a][1,7]naphthyridine-1,5,7(2H,8H)-trione] are 155 nM and 2 nM.
On the same counts, the results for `Cc1cn(C)c(=O)c2c1c(=O)c(O)c1n2CCN(Cc2ccc(F)c(Cl)c2)C1=O` [Compound 22, 8-(3-chloro-4-fluorobenzyl)-6-hydroxy-2,4-dimethyl-9,10-dihydro-1H-pyrazino[1,2-a][1,7]naphthyridine-1,5,7(2H,8H)-trione] are 456 nM and 1 nM.
On the same counts, the results for `CC1COCc2c1c(=O)c(O)c1n2CCN(Cc2ccc(F)c(Cl)c2)C1=O` (stereo not drawn) [Compound 25] are 351 nM and 21 nM.
With `CC(C)c1c(CNC(=O)OC(C)(C)C)n2c(c(O)c1=O)C(=O)N(Cc1ccc(F)c(Cl)c1)CC2` [Compound 31, tert-butyl((2-(3-chloro-4-fluorobenzyl)-9-hydroxy-7-isopropyl-1,8-dioxo-2,3,4,8-tetrahydro-1H-pyrido[1,2-a]pyrazin-6-yl)methyl)carbamate], the figures for the IC50 in the assay with HIV-1 (NL4-3 strain) and on WT-Integrase were 2610 nM and 42 nM, respectively.
On the same counts, the results for `CC(C)c1c(CN)n2c(c(O)c1=O)C(=O)N(Cc1ccc(F)c(Cl)c1)CC2` [Compound 32, 6-(aminomethyl)-2-(3-chloro-4-fluorobenzyl)-9-hydroxy-7-isopropyl-3,4-dihydro-1H-pyrido[1,2-a]pyrazine-1,8(2H)-dione trifluoroacetate salt] are 151 nM and 14 nM.
